Experiment: Dehydration/re-hydration study (weight change over desiccants, then 33-95% RH, KF water content)
Format: physicochemical
Conditions: for KF moisture result: dehydration/rehydration sample
Experimental: The hexahydrate produced in Example 1 was analysed as follows. Four desiccator cabinets were prepared to contain open dishes of the following saturated salt solutions, to achieve the following approximate relative humidities (RH).
Dehydration of samples was carried out by storing them over silica gel or over P2O5 at reduced pressure (65 mm Hg). All studies were performed at ambient laboratory temperature (15-22° C.).
During this study, samples were dispensed to pre-equilibrated weighing bottles as in the hygroscopicity study, and were then stored over silica gel without reduced pressure, then over […] under reduced pressure (65 mm Hg) to dehydrate the hydrate. Once a stable weight was achieved over P2O5, samples were re-hydrated by storing them at 33% RH to 95% RH, in parallel with the hygroscopicity study as described above.
Water contents were measured by coulometric KF (Karl Fischer) titration.

COc1cc2c(cc1OC)CN(CCc1ccc(NC(=O)c3cc(OC)c(OC)cc3NC(=O)c3cnc4ccccc4c3)cc1)CC2 [Example 1, Quinoline-3-carboxylic acid (2-{4-[2-(6,7-dimethoxy-3,4-dihydro-1H-isoquinolin-2-yl)-ethyl]-phenylcarbamoyl}-4,5-dimethoxy-phenyl)-amide]
Cumulative % change Dehydration/Rehydration (60% RH, cumulative time 1744.50 h): 0.19% | Cumulative % change Dehydration/Rehydration (60% RH, cumulative time 1746.50 h): 0.31% | Cumulative % change Dehydration/Rehydration (60% RH, cumulative time 1762.50 h): 0.30% | Cumulative % change Dehydration/Rehydration (60% RH, cumulative time 1835.75 h): 0.54% | Cumulative % change Dehydration/Rehydration (60% RH, cumulative time 1932.25 h): 0.64% | Cumulative % change Dehydration/Rehydration (60% RH, cumulative time 2101.50 h): 0.86% | Cumulative % change Dehydration/Rehydration (60% RH, cumulative time 2147.75 h): 0.62% | Cumulative % change Dehydration/Rehydration (60% RH, cumulative time 2273.75 h): 0.61% | Cumulative % change Dehydration/Rehydration (60% RH, cumulative time 2410.25 h): 0.51% | Cumulative % change Dehydration/Rehydration (75% RH, cumulative time 2417.25 h): 1.18% | Cumulative % change Dehydration/Rehydration (75% RH, cumulative time 2434.25 h): 1.21% | Cumulative % change Dehydration/Rehydration (75% RH, cumulative time 2441.25 h): 1.26% | Cumulative % change Dehydration/Rehydration (75% RH, cumulative time 2482.00 h): 1.23% | Cumulative % change Dehydration/Rehydration (75% RH, cumulative time 2577.75 h): 1.35% | Cumulative % change Dehydration/Rehydration (75% RH, cumulative time 2609.75 h): 1.38% | Cumulative % change Dehydration/Rehydration (75% RH, cumulative time 2681.25 h): 1.41% | Cumulative % change Dehydration/Rehydration (75% RH, cumulative time 2770.25 h): 1.36% | Cumulative % change Dehydration/Rehydration (75% RH, cumulative time 2817.75 h): 1.44% | Cumulative % change Dehydration/Rehydration (95% RH, cumulative time 2825.25 h): 2.28% | Cumulative % change Dehydration/Rehydration (95% RH, cumulative time 2841.75 h): 2.73% | Cumulative % change Dehydration/Rehydration (95% RH, cumulative time 2915.75 h): 3.06% | Cumulative % change Dehydration/Rehydration (95% RH, cumulative time 2937.75 h): 3.21% | Cumulative % change Dehydration/Rehydration (95% RH, cumulative time 2991.25 h): 3.25% | Cumulative % change Dehydration/Rehydration (95% RH, cumulative time 3082.25 h): 3.86% | Cumulative % change Dehydration/Rehydration (95% RH, cumulative time 3130.00 h): 4.12% | Cumulative % change Dehydration/Rehydration (95% RH, cumulative time 3182.25 h): 3.99% | Cumulative % change Dehydration/Rehydration (95% RH, cumulative time 3252.25 h): 4.19% | Cumulative % change Dehydration/Rehydration (95% RH, cumulative time 3350.25 h): 4.22% | Cumulative % change Dehydration/Rehydration (95% RH, cumulative time 3422.25 h): 4.35% | Cumulative % change Dehydration/Rehydration (95% RH, cumulative time 3636.25 h): 5.31% | Cumulative % change Dehydration/Rehydration (95% RH, cumulative time 4332.75 h): 5.58% | Cumulative % change Dehydration/Rehydration (P2O5 with vacuum, cumulative time 425.00 h): −10.85% | Cumulative % change Dehydration/Rehydration (P2O5 with vacuum, cumulative time 452.00 h): −11.00% | Cumulative % change Dehydration/Rehydration (P2O5 with vacuum, cumulative time 476.75 h): −11.19% | Cumulative % change Dehydration/Rehydration (P2O5 with vacuum, cumulative time 570.25 h): −11.43% | Cumulative % change Dehydration/Rehydration (P2O5 with vacuum, cumulative time 641.00 h): −11.35% | Cumulative % change Dehydration/Rehydration (P2O5 with vacuum, cumulative time 760.50 h): −11.51% | Cumulative % change Dehydration/Rehydration (P2O5 with vacuum, cumulative time 904.25 h): −11.46% | Cumulative % change Dehydration/Rehydration (P2O5 with vacuum, cumulative time 1071.00 h): −11.54% | Cumulative % change Dehydration/Rehydration (P2O5 with vacuum, cumulative time 1144.00 h): −11.48% | initial water content of the sample (before dehydration): 12.5% | notional water content after dehydration and re-hydration at 33% RH (corresponding to the net weight change): about 11.5% | net weight change after dehydration and re-hydration at 33% RH (dehydrated then re-hydrated at 33% RH): about −1% | final weight change on dehydration (dehydration over increasing desiccating conditions): −11.5% | KF moisture result (95% RH, cumulative time 4332.75 h (end)): (15.81) % w/w | KF moisture result (printed in first 33% RH row (1147.25 h), after dehydration over P2O5): (3.82) % w/w | KF moisture result (printed in first row (silica, no vacuum, 3.00 h), initial value before dehydration): (12.53) % w/w | Cumulative % change Dehydration/Rehydration (re-hydration at 33% RH, cumulative time 1147.25 h): −6.61% | Cumulative % change Dehydration/Rehydration (re-hydration at 33% RH, cumulative time 1150.75 h): −4.80% | Cumulative % change Dehydration/Rehydration (re-hydration at 33% RH, cumulative time 1168.00 h): −2.47% | Cumulative % change Dehydration/Rehydration (re-hydration at 33% RH, cumulative time 1240.75 h): −0.68% | Cumulative % change Dehydration/Rehydration (re-hydration at 33% RH, cumulative time 1268.50 h): −0.62% | Cumulative % change Dehydration/Rehydration (re-hydration at 33% RH, cumulative time 1312.50 h): −0.62% | Cumulative % change Dehydration/Rehydration (re-hydration at 33% RH, cumulative time 1431.25 h): −0.83% | Cumulative % change Dehydration/Rehydration (re-hydration at 33% RH, cumulative time 1502.25 h): −0.66% | Cumulative % change Dehydration/Rehydration (re-hydration at 33% RH, cumulative time 1672.50 h): −0.91%
